pIC50: −log10 of the molar value.
Key:
NAMPT = NAMPT (Homo sapiens, UniProt P43490); assay: Time-Resolved Fluorescence Resonance Energy Transfer (TR-FRET) Binding Assay of NAMPT with PRPP; settings: 2 nM NAMPT, 2 nM probe, 200 uM PRPP and 2.5 mM ATP, equilibrated 16 hours
In short: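 Binding measured by TR-FRET after a 16-hour equilibration meant to permit enzymatic compound modification. Substrates present at 200 uM PRPP and 2.5 mM ATP, with 2 nM enzyme, 2 nM probe, 1 nM Tb-anti-His antibody and 2% DMSO final.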

[1] = target: NAMPT (human, recombinant, C-terminally His-tagged) (Homo sapiens, UniProt P43490); assay: Time-Resolved Fluorescence Resonance Energy Transfer (TR-FRET) Binding Assay of NAMPT; settings: 6.8 nM NAMPT, 200 nM probe, equilibrated 3 hours, absence of substrates
In short: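 Probe displacement measured by TR-FRET (Ex 337 nm; 520/495 nm ratio) after 3 h room-temperature equilibration of compound with 6.8 nM His-tagged human NAMPT, 1 nM Tb-anti-His antibody and 200 nM Oregon Green 488 nicotinamide-site probe, pH 7.5 HEPES buffer, 2% DMSO. Control-normalized data fit four-parameter logistic for IC50.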

Chain of NAMPT (human, recombinant, C-terminally His-tagged) (P43490 whole entry): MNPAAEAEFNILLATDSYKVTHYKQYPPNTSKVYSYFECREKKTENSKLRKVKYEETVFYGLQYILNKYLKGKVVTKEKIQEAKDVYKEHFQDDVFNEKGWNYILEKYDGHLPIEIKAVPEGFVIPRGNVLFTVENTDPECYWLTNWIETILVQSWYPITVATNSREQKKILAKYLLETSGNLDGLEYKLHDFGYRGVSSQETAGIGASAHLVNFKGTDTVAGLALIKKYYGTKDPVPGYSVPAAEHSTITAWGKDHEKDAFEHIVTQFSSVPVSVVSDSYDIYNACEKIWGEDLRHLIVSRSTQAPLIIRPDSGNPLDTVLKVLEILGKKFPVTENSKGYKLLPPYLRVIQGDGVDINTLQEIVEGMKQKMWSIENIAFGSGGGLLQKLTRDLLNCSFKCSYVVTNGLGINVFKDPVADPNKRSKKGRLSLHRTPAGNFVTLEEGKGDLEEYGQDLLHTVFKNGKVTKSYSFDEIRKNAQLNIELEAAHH
Chain of NAMPT (P43490 whole entry): as above

Row | pIC50 (NAMPT) | pIC50 [1] | Structure (SMILES)
1 | 9.08 | 6.95 | O=C(Nc1ccc(OC2CCN(C(=O)Cc3cc(F)cc(F)c3)CC2)cc1)C1CN(c2cccnn2)C1 [Example 239, N-[4-({1-[(3,5-difluorophenyl)acetyl]piperidin-4-yl}oxy)phenyl]-1-(pyridazin-3-yl)azetidine-3-carboxamide]
2 | 7.19 | 6.61 | CC(=O)N1CCC(c2ccc(NC(=O)C3CN(c4cccnc4C)C3)cc2)CC1 [Example 178, N-[4-(1-acetylpiperidin-4-yl)phenyl]-1-(2-methylpyridin-3-yl)azetidine-3-carboxamide]
3 | 8.51 | 5.42 | O=C(Nc1ccc(OC2CCN(C(=O)[C@H]3CCCO3)CC2)cc1)[C@H]1CCN(c2cccnc2)C1 [Example 14, (3S)-1-(pyridin-3-yl)-N-[4-({1-[(2R)-tetrahydrofuran-2-ylcarbonyl]piperidin-4-yl}oxy)phenyl]pyrrolidine-3-carboxamide]
4 | 8.93 | 6.56 | O=C(Nc1ccc(OC2CCN(C(=O)c3ccccn3)CC2)cc1)C1CN(c2cccnn2)C1 [Example 242, 1-(pyridazin-3-yl)-N-(4-{[1-(pyridin-2-ylcarbonyl)piperidin-4-yl]oxy}phenyl)azetidine-3-carboxamide]
5 | 9.77 | 7.85 | CC(=O)N1CCC(c2ccc(NC(=O)C3CN(c4cccnc4)C3)cc2)CC1 [Example 118, N-[4-(1-acetylpiperidin-4-yl)phenyl]-1-(pyridin-3-yl)azetidine-3-carboxamide]
6 | 7.42 | 7.20 | O=C(Nc1ccc(OC2CCN(C(=O)c3ccc(F)cc3F)CC2)cc1)C1CN(c2ccnnc2)C1 [Example 284, N-(4-{[1-(2,4-difluorobenzoyl)piperidin-4-yl]oxy}phenyl)-1-(pyridazin-4-yl)azetidine-3-carboxamide]
7 | 9.45 | 8.20 | CC1(C(=O)N2CCC(c3ccc(NC(=O)C4CN(c5cccnc5)C4)cc3)CC2)CCCCC1 [Example 117, N-(4-{1-[(1-methylcyclohexyl)carbonyl]piperidin-4-yl}phenyl)-1-(pyridin-3-yl)azetidine-3-carboxamide]
8 | 6.95 | 6.78 | Cc1ncccc1N1CC(C(=O)Nc2ccc(C3CCN(C(=O)CCC(C)C)CC3)cc2)C1 [Example 176, N-{4-[1-(4-methylpentanoyl)piperidin-4-yl]phenyl}-1-(2-methylpyridin-3-yl)azetidine-3-carboxamide]
9 | 9.19 | 5.70 | CCC(C)(C)CN1CCC(c2ccc(NC(=O)C3CN(c4cccnc4)C3)cc2)CC1 [Example 89, N-{4-[1-(2,2-dimethylbutyl)piperidin-4-yl]phenyl}-1-(pyridin-3-yl)azetidine-3-carboxamide]
10 | 9.29 | 7.81 | CC(C)(C)C(=O)N1CCC(c2ccc(NC(=O)C3CN(c4cccnc4)C3)cc2)CC1 [Example 125, N-{4-[1-(2,2-dimethylpropanoyl)piperidin-4-yl]phenyl}-1-(pyridin-3-yl)azetidine-3-carboxamide]
11 | 8.96 | 7.20 | O=C(Nc1ccc(OC2CCN(C(=O)CC3CCCCC3)CC2)cc1)C1CN(c2cccnc2)C1 [Example 50, N-(4-{[1-(cyclohexylacetyl)piperidin-4-yl]oxy}phenyl)-1-(pyridin-3-yl)azetidine-3-carboxamide]
12 | 8.90 | 5.91 | CC(C)CCN1CCC(c2ccc(NC(=O)C3CN(c4cccnc4)C3)cc2)CC1 [Example 93, N-{4-[1-(3-methylbutyl)piperidin-4-yl]phenyl}-1-(pyridin-3-yl)azetidine-3-carboxamide]
13 | 9.03 | 7.18 | COc1ccc(C(=O)N2CCC(c3ccc(NC(=O)C4CN(c5cccnn5)C4)cc3)CC2)cc1 [Example 347, N-{4-[1-(4-methoxybenzoyl)piperidin-4-yl]phenyl}-1-(pyridazin-3-yl)azetidine-3-carboxamide]
14 | 7.36 | 6.53 | Cc1ncccc1N1CC(C(=O)Nc2ccc(C3CCN(C(=O)c4ccc(F)cc4)CC3)cc2)C1 [Example 155, N-{4-[1-(4-fluorobenzoyl)piperidin-4-yl]phenyl}-1-(2-methylpyridin-3-yl)azetidine-3-carboxamide]
15 | 7.46 | 6.97 | O=C(Nc1ccc(OC2CN(C(=O)CC(F)(F)F)C2)cc1)C1CN(c2ccnnc2)C1 [Example 258, 1-(pyridazin-4-yl)-N-(4-{[1-(3,3,3-trifluoropropanoyl)azetidin-3-yl]oxy}phenyl)azetidine-3-carboxamide]
16 | 8.90 | 6.62 | O=C(Nc1ccc(OC2CCN(C(=O)c3ccc(C(F)(F)F)cc3)CC2)cc1)C1CN(c2cccnn2)C1 [Example 237, 1-(pyridazin-3-yl)-N-[4-({1-[4-(trifluoromethyl)benzoyl]piperidin-4-yl}oxy)phenyl]azetidine-3-carboxamide]

Row | pIC50 (NAMPT) | pIC50 [1] | Structure (SMILES)
17 | 7.55 | 7.47 | O=C(Nc1ccc(OC2CN(C(=O)c3ccc(F)cc3)C2)cc1)C1CN(c2ccnnc2)C1 [Example 199, N-(4-{[1-(4-fluorobenzoyl)azetidin-3-yl]oxy}phenyl)-1-(pyridazin-4-yl)azetidine-3-carboxamide]
18 | 9.15 | 7.00 | O=C(Nc1ccc(OC2CCN(C(=O)c3ccc(Cl)cc3)CC2)cc1)C1CN(c2cccnn2)C1 [Example 245, N-(4-{[1-(4-chlorobenzoyl)piperidin-4-yl]oxy}phenyl)-1-(pyridazin-3-yl)azetidine-3-carboxamide]
19 | 9.21 | 6.95 | O=C(Nc1ccc(OC2CCN(C(=O)CC3CC3)CC2)cc1)C1CN(c2cccnn2)C1 [Example 233, N-(4-{[1-(cyclopropylacetyl)piperidin-4-yl]oxy}phenyl)-1-(pyridazin-3-yl)azetidine-3-carboxamide]
20 | 7.04 | 7.22 | Cc1ncccc1N1CC(C(=O)Nc2ccc(C3CCN(C(=O)C4(C)CCCCC4)CC3)cc2)C1 [Example 177, N-(4-{1-[(1-methylcyclohexyl)carbonyl]piperidin-4-yl}phenyl)-1-(2-methylpyridin-3-yl)azetidine-3-carboxamide]
21 | 9.77 | 7.87 | CCC(C)CC(=O)N1CCC(c2ccc(NC(=O)C3CN(c4cccnc4)C3)cc2)CC1 (centres unmarked) [Example 99, N-{4-[1-(3-methylpentanoyl)piperidin-4-yl]phenyl}-1-(pyridin-3-yl)azetidine-3-carboxamide]
22 | 6.77 | 5.53 | Cc1ncccc1N1CC(C(=O)Nc2ccc(C3CCN(C(=O)CCN(C)C)CC3)cc2)C1 [Example 168, N-{4-[1-(N,N-dimethyl-beta-alanyl)piperidin-4-yl]phenyl}-1-(2-methylpyridin-3-yl)azetidine-3-carboxamide]
23 | 7.00 | 7.06 | Cc1ncccc1N1CC(C(=O)Nc2ccc(C3CCN(C(=O)c4cccc(F)c4)CC3)cc2)C1 [Example 152, N-{4-[1-(3-fluorobenzoyl)piperidin-4-yl]phenyl}-1-(2-methylpyridin-3-yl)azetidine-3-carboxamide]
24 | 9.17 | 6.98 | O=C(Nc1ccc(OC2CCN(C(=O)c3nccs3)CC2)cc1)C1CN(c2cccnn2)C1 [Example 213, 1-(pyridazin-3-yl)-N-(4-{[1-(1,3-thiazol-2-ylcarbonyl)piperidin-4-yl]oxy}phenyl)azetidine-3-carboxamide]
25 | 8.27 | 5.56 | O=C(Nc1ccc(OC2CCN(C(=O)CC(F)(F)F)CC2)cc1)[C@H]1CCN(c2cccnc2)C1 [Example 18, (3S)-1-(pyridin-3-yl)-N-(4-{[1-(3,3,3-trifluoropropanoyl)piperidin-4-yl]oxy}phenyl)pyrrolidine-3-carboxamide]
26 | 7.24 | 6.83 | O=C(Nc1ccc(OC2CCN(C(=O)c3ccccn3)CC2)cc1)C1CN(c2ccnnc2)C1 [Example 296, 1-(pyridazin-4-yl)-N-(4-{[1-(pyridin-2-ylcarbonyl)piperidin-4-yl]oxy}phenyl)azetidine-3-carboxamide]
27 | 7.84 | 7.39 | Cc1ncccc1N1CC(C(=O)Nc2ccc(C3CCN(C(=O)C(C)(C)O)CC3)cc2)C1 [Example 71, N-{4-[1-(2-hydroxy-2-methylpropanoyl)piperidin-4-yl]phenyl}-1-(2-methylpyridin-3-yl)azetidine-3-carboxamide]
28 | 6.99 | 5.72 | Cc1ncccc1N1CC(C(=O)Nc2ccc(C3CCN(C(=O)CCN4CCCCC4)CC3)cc2)C1 [Example 190, 1-(2-methylpyridin-3-yl)-N-(4-{1-[3-(piperidin-1-yl)propanoyl]piperidin-4-yl}phenyl)azetidine-3-carboxamide]
29 | 9.13 | 7.23 | O=C(Nc1ccc(C2CCN(C(=O)c3ccc(F)cc3)CC2)cc1)C1CN(c2cccnn2)C1 [Example 349, N-{4-[1-(4-fluorobenzoyl)piperidin-4-yl]phenyl}-1-(pyridazin-3-yl)azetidine-3-carboxamide]
30 | 9.08 | 5.90 | O=C(Nc1ccc(C2CCN(CC3CCCCC3)CC2)cc1)C1CN(c2cccnc2)C1 [Example 86, N-{4-[1-(cyclohexylmethyl)piperidin-4-yl]phenyl}-1-(pyridin-3-yl)azetidine-3-carboxamide]
31 | 7.05 | 6.93 | O=C(Nc1ccc(OC2CN(C(=O)C3CCC(F)(F)CC3)C2)cc1)C1CN(c2ccnnc2)C1 [Example 202, N-[4-({1-[(4,4-difluorocyclohexyl)carbonyl]azetidin-3-yl}oxy)phenyl]-1-(pyridazin-4-yl)azetidine-3-carboxamide]
